Consider two compounds from patent US7982043B2, “Protein tyrosine kinase enzyme inhibitors” (Wyeth LLC, priority 2003, dated 2011).

pIC50: −log10 of the molar value. Values after ≈ are worked out from the molar mass of the structure shown. Where two headings read alike, the source gives them in different places.

Assay [1] addresses T1, recombinant cytoplasmic domain of HER-2 (Homo sapiens, UniProt P04626).
T1 construct: In a cell-free autophosphorylation assay using the recombinant cytoplasmic domain of HER-2
Description: Cell-free autophosphorylation kinase assay (ELISA), HER-2. The settings on record: for pIC50: HER-2 enzyme activity reduced by 50% (IC50), span over the three inhibitors. In kind it is biochemical. Background: In an ELISA, binding on a coated surface is turned into a signal by an enzyme label.

Another assay concerns 3T3 cells. The assay is described as follows: Cell proliferation assay (SRB), 3T3. In kind it is cell-based, mouse. The conditions noted are these: Mus musculus; for IC50: NIH3T3, 48 h, EGFR −, Her-2 −, 2 days, SRB, read-out: CELL IC50 3T3; for pIC50: NIH3T3, span over the three compounds, read-out: IC50 isogenic untransfected cells (3T3).
Assay [2] has as its target mouse fibroblast cell line transfected with the HER-2 oncogene (3T3/neu) (UniProt P04626, cells depend on it, species not given). Description: Cell proliferation assay (SRB), 3T3/neu. In kind it is cell-based. The conditions noted are these: EGFR −, Her-2 +++; 2 days, SRB; read-out: CELL IC50 3T3/NEU (converted).
The test system of another assay is A431 cells. The assay is described as follows: Cell proliferation assay (SRB), A431. In kind it is cell-based. The conditions noted are these: Homo sapiens, A-431, 48 h; EGFR +++, Her-2 +; 2 days, SRB; read-out: CELL IC50 A431.
The next assay concerns SK-Br-3 cells. Description: Cell proliferation assay (SRB), SK-Br-3. The settings on record: Homo sapiens, SK-BR-3, 48 h; EGFR −, Her-2 +++; 2 days, SRB; read-out: CELL IC50 SKBr3. In kind it is cell-based.
In the next assay the test system is BT474 cells. The assay is described as follows: Cell proliferation assay (SRB), BT474. The conditions noted are these: Homo sapiens, BT-474, 144 h; EGFR +, Her-2 +++; 6 days, SRB; read-out: CELL IC50 BT474. Format: cell-based, human.
Another assay has as its system MDA-MB-435 cells. The assay is described as follows: Cell proliferation assay (SRB), MDA-MB-435. The conditions noted are these: Homo sapiens, MDA-MB-435, 48 h; EGFR −, Her-2 −; 2 days, SRB; read-out: CELL IC50 MDA-MB-435. Format: cell-based.
For the next assay, the system named is SW620 cells. Description: Cell proliferation assay (SRB), SW620. The conditions noted are these: Homo sapiens, SW-620, 48 h; EGFR −, Her-2 −; 2 days, SRB; read-out: CELL IC50 SW620. Format: cell-based.
The target of a further assay is T2, Her-2 (Homo sapiens, UniProt P04626).
T2 construct: For Her-2 and EGFR phosphorylation assays, cells (BT474 and A431, respectively) were incubated with various concentrations of compound; endogenous in cells; host or cells: BT474
Description: Her-2 receptor phosphorylation in BT474 cells (immunoblot). In kind it is cell-based. The conditions noted are these: for IC50: Her-2 phosphorylation, 3 hours at 37° C., immunoblot, read-out: IC50 receptor phosphorylation BT474 (converted); for pIC50: ligand-independent receptor phosphorylation decreased by 50% (IC50) in BT474 cells, span over the three compounds. On the technique in general: Immunoblotting shows a protein as a band on a membrane.

In assay [3] the target is T3, EGFR (Homo sapiens, UniProt P00533). The assay is described as follows: Cell-free autophosphorylation kinase assay (ELISA), EGFR. Format: biochemical. Further details: Purified recombinant C-terminal fragment of each enzyme is incubated with ATP. The conditions noted are these: read-out: Enzyme IC50 EGFR (converted).
Target sequence in this assay (P00533 669-1210 limits assumed): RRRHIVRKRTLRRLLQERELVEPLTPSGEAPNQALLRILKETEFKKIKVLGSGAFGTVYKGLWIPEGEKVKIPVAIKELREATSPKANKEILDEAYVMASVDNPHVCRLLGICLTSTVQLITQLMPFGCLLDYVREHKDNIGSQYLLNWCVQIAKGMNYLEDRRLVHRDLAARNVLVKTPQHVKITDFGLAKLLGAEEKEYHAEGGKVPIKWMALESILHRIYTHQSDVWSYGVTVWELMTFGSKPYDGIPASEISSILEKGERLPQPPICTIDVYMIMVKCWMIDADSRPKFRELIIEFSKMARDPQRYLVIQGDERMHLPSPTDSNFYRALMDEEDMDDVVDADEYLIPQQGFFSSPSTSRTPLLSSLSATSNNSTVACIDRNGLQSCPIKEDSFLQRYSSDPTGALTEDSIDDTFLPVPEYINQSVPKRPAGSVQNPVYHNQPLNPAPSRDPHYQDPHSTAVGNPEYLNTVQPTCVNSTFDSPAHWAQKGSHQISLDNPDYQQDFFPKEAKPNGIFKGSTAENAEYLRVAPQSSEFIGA
Assay [4] deals with T3, EGFR. The assay is described as follows: EGFR receptor phosphorylation in A431 cells (immunoblot). The conditions noted are these: for IC50 receptor phosphorylation A431: EGFR phosphorylation, 3 hours at 37° C., immunoblot; for pIC50: span over the three compounds, read-out: EGF-dependent phosphorylation of EGFR in A431 cells IC50. Further details: They also repressed EGF-dependent phosphorylation of EGFR in A431 cells; endogenous in cells; host or cells: A431. In kind it is cell-based.
Target sequence in this assay (P00533 25-1210): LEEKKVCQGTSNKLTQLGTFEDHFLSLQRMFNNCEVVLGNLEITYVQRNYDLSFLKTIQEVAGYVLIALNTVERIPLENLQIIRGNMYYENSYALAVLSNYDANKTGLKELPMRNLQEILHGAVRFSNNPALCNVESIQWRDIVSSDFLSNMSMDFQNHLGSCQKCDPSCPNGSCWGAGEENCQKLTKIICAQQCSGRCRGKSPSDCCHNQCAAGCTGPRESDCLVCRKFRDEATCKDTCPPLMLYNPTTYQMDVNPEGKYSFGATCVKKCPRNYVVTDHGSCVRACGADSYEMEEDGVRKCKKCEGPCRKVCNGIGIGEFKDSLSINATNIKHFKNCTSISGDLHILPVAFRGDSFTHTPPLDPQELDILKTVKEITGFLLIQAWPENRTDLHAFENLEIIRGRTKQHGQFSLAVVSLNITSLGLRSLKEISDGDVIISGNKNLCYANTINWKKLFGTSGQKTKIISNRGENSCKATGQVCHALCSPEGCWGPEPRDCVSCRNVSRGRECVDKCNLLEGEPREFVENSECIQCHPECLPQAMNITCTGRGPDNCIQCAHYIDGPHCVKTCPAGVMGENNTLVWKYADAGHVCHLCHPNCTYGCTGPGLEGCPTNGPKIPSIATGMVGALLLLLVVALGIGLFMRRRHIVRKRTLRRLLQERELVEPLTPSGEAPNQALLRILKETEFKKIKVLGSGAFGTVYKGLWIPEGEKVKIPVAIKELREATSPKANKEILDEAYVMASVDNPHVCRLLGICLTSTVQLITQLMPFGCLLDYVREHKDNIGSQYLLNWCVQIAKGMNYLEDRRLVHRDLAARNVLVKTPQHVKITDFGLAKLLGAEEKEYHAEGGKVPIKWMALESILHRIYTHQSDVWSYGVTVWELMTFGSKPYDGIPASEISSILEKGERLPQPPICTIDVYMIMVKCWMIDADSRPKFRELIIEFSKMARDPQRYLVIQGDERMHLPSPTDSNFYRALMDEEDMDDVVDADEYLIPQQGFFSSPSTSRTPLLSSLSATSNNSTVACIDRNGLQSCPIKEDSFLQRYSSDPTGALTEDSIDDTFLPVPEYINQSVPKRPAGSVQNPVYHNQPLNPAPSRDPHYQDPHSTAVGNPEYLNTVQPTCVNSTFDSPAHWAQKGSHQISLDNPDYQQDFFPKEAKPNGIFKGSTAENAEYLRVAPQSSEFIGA

In assay [5] the test system is xenografts of 3T3/neu cells. Description: 3T3/neu tumor xenograft in nude mice. Format: in vivo, mouse. The settings on record: for tumor growth inhibition: day 21.
The test system of the next assay is BT474 xenografts. Description: BT474 tumor xenograft in nude mice. The conditions noted are these: day 21. In kind it is in vivo, mouse.
The test system of the next assay is xenografts of SUM-190. The assay is described as follows: SUM-190 tumor xenograft in nude mice. Format: in vivo, mouse. The conditions noted are these: 40 mg/kg/day PO, day 28.
The next assay relates to xenografts of SK-OV-3. Description: SK-OV-3 tumor xenograft in nude mice. In kind it is in vivo, mouse. The settings on record: day 35.
Assay [6] has as its system HER-2 overexpressing human xenograft models. Description: HER-2 overexpressing human xenograft models (overall). In kind it is in vivo, mouse. (A xenograft is tissue or cells of one species grown in another, often human tumour cells in immunodeficient mice.)

T1 sequence (P04626 676-1255 limits assumed): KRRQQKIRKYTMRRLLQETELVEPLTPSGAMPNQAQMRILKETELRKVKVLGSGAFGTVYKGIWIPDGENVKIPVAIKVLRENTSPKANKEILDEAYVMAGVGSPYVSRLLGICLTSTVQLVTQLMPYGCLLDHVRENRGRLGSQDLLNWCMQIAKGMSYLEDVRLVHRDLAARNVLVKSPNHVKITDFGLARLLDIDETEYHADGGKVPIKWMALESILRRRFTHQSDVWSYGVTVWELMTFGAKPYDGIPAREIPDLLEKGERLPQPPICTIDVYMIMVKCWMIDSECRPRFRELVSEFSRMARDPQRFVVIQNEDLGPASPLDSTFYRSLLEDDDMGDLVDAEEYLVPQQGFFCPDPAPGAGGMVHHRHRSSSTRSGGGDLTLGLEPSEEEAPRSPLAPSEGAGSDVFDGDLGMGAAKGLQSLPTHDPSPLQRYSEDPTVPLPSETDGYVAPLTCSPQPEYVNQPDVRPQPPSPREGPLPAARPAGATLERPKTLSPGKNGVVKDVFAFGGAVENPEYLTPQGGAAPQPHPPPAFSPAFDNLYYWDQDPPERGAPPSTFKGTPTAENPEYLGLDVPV
T2 sequence (P04626 23-1255): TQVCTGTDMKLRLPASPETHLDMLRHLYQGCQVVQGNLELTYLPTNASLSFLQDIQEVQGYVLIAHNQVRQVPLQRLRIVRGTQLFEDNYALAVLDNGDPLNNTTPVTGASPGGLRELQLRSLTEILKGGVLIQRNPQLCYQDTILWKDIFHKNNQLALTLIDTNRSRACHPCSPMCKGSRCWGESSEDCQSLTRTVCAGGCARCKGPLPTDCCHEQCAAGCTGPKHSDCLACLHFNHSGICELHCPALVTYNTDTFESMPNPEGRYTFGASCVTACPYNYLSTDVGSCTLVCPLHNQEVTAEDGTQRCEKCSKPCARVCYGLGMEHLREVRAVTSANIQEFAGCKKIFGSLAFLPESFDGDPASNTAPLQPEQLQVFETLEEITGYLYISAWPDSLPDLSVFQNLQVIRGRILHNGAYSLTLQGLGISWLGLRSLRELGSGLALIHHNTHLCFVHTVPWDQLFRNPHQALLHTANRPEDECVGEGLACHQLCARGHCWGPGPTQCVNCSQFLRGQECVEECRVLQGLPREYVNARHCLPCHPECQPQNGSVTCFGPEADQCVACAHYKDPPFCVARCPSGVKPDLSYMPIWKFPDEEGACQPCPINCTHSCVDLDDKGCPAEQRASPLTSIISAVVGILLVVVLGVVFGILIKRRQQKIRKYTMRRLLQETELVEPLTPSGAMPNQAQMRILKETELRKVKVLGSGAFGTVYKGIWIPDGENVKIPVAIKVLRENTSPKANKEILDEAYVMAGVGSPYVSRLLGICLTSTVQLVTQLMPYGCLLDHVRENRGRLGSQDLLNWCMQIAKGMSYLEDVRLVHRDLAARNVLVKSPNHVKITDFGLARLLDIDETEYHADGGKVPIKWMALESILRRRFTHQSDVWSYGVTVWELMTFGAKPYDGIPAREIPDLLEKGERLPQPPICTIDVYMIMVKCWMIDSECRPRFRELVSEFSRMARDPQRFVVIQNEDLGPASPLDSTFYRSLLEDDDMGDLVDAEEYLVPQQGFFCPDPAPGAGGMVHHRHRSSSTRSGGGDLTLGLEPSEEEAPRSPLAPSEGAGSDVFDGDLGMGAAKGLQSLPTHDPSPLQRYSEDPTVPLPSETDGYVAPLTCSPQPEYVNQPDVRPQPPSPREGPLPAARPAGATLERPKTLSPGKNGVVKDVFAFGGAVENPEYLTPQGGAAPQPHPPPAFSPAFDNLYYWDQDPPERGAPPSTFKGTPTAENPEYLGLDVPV

By pIC50 is commonly meant the negative decadic logarithm of the IC50, by convention in mol/L. One may read the IC50 as the concentration needed to halve the response being measured. For the compound `CCOc1cc2ncc(C#N)c(Nc3ccc(OCc4ccccc4)c(Cl)c3)c2cc1NC(=O)/C=C/CN(C)C` [Example 1, (E)-N-{4-[4-(benzyloxy)-3-chloroanilino]-3-cyano-7-ethoxy-6-quinolinyl}-4-(dimethylamino)-2-butenamide], the “inhibition of the HER-2 enzyme (in words)” value in assay [1] is reported as “potent inhibitors”. The pIC50 is 7.19 to 7.48 in assay [1], 6.04 to 6.17 in the assay with 3T3 cells, 7.64 to 8.30 at Her-2 and 8.15 to 8.52 on EGFR [4]. Besides, the IC50 in [1] (autophosphorylation, ELISA, read-out: Enzyme IC50 HER-2 (converted)) is 64.7 nM; with 3T3 cells it was 0.38 µg/mL; in the assay on A431 cells, 0.062 µg/mL (≈ 0.111 µM); in the assay on SK-Br-3 cells, 0.0015 µg/mL (≈ 0.0027 µM); in the assay with BT474 cells, 0.0014 µg/mL (≈ 0.00252 µM); in the assay with MDA-MB-435 cells it was 0.47 µg/mL (≈ 0.845 µM). For the same compound, the IC50 in the assay on SW620 cells was 0.24 µg/mL (≈ 0.432 µM); on Her-2, 13.5 nM; at EGFR [3] it was 50.4 nM. Moreover, the GI50 in assay [2] is 5.22 nM. In addition, the “IC50 receptor phosphorylation A431” value against EGFR [4] came to 0.0031 µg/mL (≈ 0.00557 µM).

Consider `CCOc1cc2ncc(C#N)c(Nc3ccc(OCc4cccc(F)c4)c(Cl)c3)c2cc1NC(=O)/C=C/CN(C)C` [Example 3, (E)-N-(4-{3-chloro-4-[(3-fluorobenzyl)oxy]anilino}-3-cyano-7-ethoxy-6-quinolinyl)-4-(dimethylamino)-2-butenamide], for which the “inhibition of the HER-2 enzyme (in words)” value in assay [1] is on record as “potent inhibitors”. The negative logarithm of the IC50 (pIC50) is 7.19 to 7.48 in assay [1], 6.04 to 6.17 in the assay on 3T3 cells, 7.64 to 8.30 against Her-2 and 8.15 to 8.52 on EGFR [4]. Moreover, the “Enzyme IC50 HER-2” value in assay [1] (autophosphorylation, ELISA) worked out at 0.019 µg/mL. The IC50 in the assay with 3T3 cells stood at 0.52 µg/mL; with A431 cells it was 0.069 µg/mL (≈ 0.12 µM); with SK-Br-3 cells, 0.0015 µg/mL (≈ 0.00261 µM); in the assay on BT474 cells it was 0.0024 µg/mL (≈ 0.00418 µM); with MDA-MB-435 cells, 0.51 µg/mL (≈ 0.888 µM); in the assay on SW620 cells, 0.29 µg/mL (≈ 0.505 µM). Further, the results for the IC50 at Her-2 and on EGFR [3] were 22.6 nM and 33.1 nM, respectively. Further, in assay [2], the GI50 is 4.01 nM. Moreover, the “tumor growth inhibition, statistically-significant” value in [5] (10 mg/kg/day PO, two other independent tests) was 21-33%. The tumor growth inhibition in assay [5] (20 mg/kg/day PO) is listed as 65%; in assay [5] (40 mg/kg/day PO), 97%; in [5] (80 mg/kg/day PO), 99%; in the assay on xenografts of SUM-190, 94%; in the assay on xenografts of SK-OV-3 (20 mg/kg/day PO) it was 86%; in the assay on xenografts of SK-OV-3 (60 mg/kg/day PO), 91%. The “minimum efficacious dose (MED)” value in [5] (smallest dose with sustained, statistically-significant (p<0.05) reduction of tumor growth) is 10 mg/kg/day. Besides, the “maximum tumor growth inhibition” value with BT474 xenografts (10 mg/kg/day PO) amounted to 59%; in the assay with BT474 xenografts (40 mg/kg/day PO) it was 96%. Also, in assay [6] (after end of treatment), the “tumor behaviour after treatment was completed (in words)” value is on record as “evidence of re-growth”. Further, in [6] (during dosing), the “tumor regression (in words)” value was “no decrease in tumor size below the initial size”. Further, the “MED in the HER-2 overexpressing human xenograft models” value in assay [6] (mouse, in vivo) is on record as 10 mg/kg/day. On EGFR [4], the “IC50 receptor phosphorylation A431” value amounted to 0.0042 µg/mL (≈ 0.00732 µM).
